The results in this text go back to ChEMBL document CHEMBL4673232, “Optimization of a series of potent, selective and orally bioavailable SYK inhibitors” (Bioorg Med Chem Lett, 2020).

≈ marks a conversion by molar mass, not a printed value.

For orientation: logD means lipophilicity at a set pH, counting ionised and neutral species. What is called solubility is the concentration that dissolves in the medium under given conditions. The low end stands for a poorly soluble substance, the high end for a readily soluble substance. As a reminder, the bioavailability is dose-corrected exposure relative to a reference, in per cent. A lower bioavailability goes with little systemic uptake. In general, pKa refers to the negative logarithm of the acid dissociation constant. A low value points to a group that gives up its proton readily. The term Papp A→B denotes the apparent permeability from the apical to the basolateral side of a cell layer.

Data set [1] can be described thus: Lipophilicity, logD of compound. The settings on record: octanol/water. The class given is physicochemical.
A short description of data set [2]: Metabolic stability in human liver microsomes assessed as intrinsic clearance. Type of data set: ADME, Microsome. The settings on record: read-out: CLH. For orientation: Liver microsomes are vesicles of endoplasmic reticulum, rich in cytochrome P450 enzymes.
Data set [3] can be described thus: Metabolic stability in rat hepatocyte assessed as intrinsic clearance. Type of data set: ADME, tissue-based. To be noted: hepatocytes.
Data set [4] in a line: Solubility of compound. Type of data set: physicochemical.
Data set [5] can be described thus: Metabolic stability in human hepatocyte assessed as intrinsic clearance. The settings on record: hepatocytes. Type of data set: ADME, tissue-based.
Data set [6] can be described thus: Clearance in Han Wistar rat at 0.5 mg/kg, iv or 1 mg/kg, po. Type of data set: ADME, organism-based. The settings on record: in vivo.
Data set [7] in a line: Unbound clearance in Han Wistar rat at 0.5 mg/kg, iv or 1 mg/kg, po. To be noted: in vivo. Type of data set: ADME, organism-based.
Data set [8] can be described thus: Volume of distribution at steady state in Han Wistar rat at 0.5 mg/kg, iv or 1 mg/kg, po. Type of data set: ADME, organism-based. The settings on record: in vivo, read-out: Vdss.
Data set [9] in a line: Oral bioavailability in Han Wistar rat at 1 mg/kg. Type of data set: ADME, organism-based. The settings on record: in vivo.
Data set [10] can be described thus: Dissociation constant, pKa of the compound. Type of data set: physicochemical.
A short description of data set [11]: Clearance in CD-1 mouse at 0.5 mg/kg, iv or 1 mg/kg, po. Type of data set: ADME, organism-based. The settings on record: in vivo.
Data set [12] is described as follows: Clearance for unbound fraction in CD-1 mouse at 0.5 mg/kg, iv or 1 mg/kg, po. The class given is ADME, organism-based. The settings on record: in vivo.
The nature of data set [13]: Volume of distribution at steady state in CD-1 mouse at 0.5 mg/kg, iv or 1 mg/kg, po. Type of data set: ADME, organism-based. To be noted: in vivo, read-out: Vdss.
A short description of data set [14]: Oral bioavailability in CD-1 mouse at 1 mg/kg. Type of data set: ADME, organism-based. The settings on record: in vivo.
Data set [15] in a line: Apparent permeability of the compound across apical to basolateral side in human Caco-2 cells at pH 6.5. The class given is ADME, cell-based. The settings on record: Caco-2, pH 6.5.
The conditions of data set [16]: mouse, hepatocytes.

Turning to `CNC(=O)c1nn(C)c2ccc(Nc3nccc(-n4cc(CN(C)C)c(OC)n4)n3)cc12`, in data set [1], the logD came out at 2.3. Moreover, the microsomal CLint in data set [2] worked out at 103 µL/min/mg. In [3], the CLH came out at 21 µL/min.

For the compound `Cc1nn(-c2ccnc(Nc3ccc4c(c3)c(Cl)c(C)n4C)n2)cc1CN1CC(O)C1`, the logD in data set [1] is 3.9. Also, the microsomal CLint in [2] stood at 49 µL/min/mg. Also, in data set [3], the CLH was 66 µL/min.

Compound `CNC(=O)c1ncn2ccc(Nc3nccc(-n4cc(CN(C)C)cn4)n3)cc12` yielded a logD in [1] of 1.4. Besides, the microsomal CLint in data set [2] was found to be 9 µL/min/mg. For the same compound, the CLH in data set [3] was determined as 34 µL/min.

For the compound `CNC(=O)c1nn(C)c2ccc(Nc3nccc(-n4cc(CN(C)C)cn4)n3)cc12`, the logD in [1] came out at 1.8. Moreover, the microsomal CLint in data set [2] was 52 µL/min/mg. The CLH in data set [3] is 31 µL/min; in [5] it was 21 µL/min. Further, the solubility in data set [4] amounted to 909 µM (≈ 369 µg/mL). The compound further came in with a clearance in data set [6] of 8 mL/min/kg. In data set [7], this compound returned a CL free of 250 mL/min/kg. In addition, in data set [8], the Vd came to 1.1 L/kg. For the same compound, the bioavailability in data set [9] was found to be 60%.

Consider `CNC(=O)c1nc(C)n2ccc(Nc3nccc(-n4cc([C@@H]5C[C@@H](F)CN5C)cn4)n3)cc12`, for which the microsomal CLint in [2] was found to be 278 µL/min/mg. For the same compound, the CLH in data set [3] came out at 31 µL/min.

In turn, `COC(=O)c1nn(C)c2c(C)cc(Nc3nccc(-c4cc(CN(C)C)n(C)n4)n3)cc12` displayed a log distribution coefficient (logD) in data set [1] of 3.2. In addition, in [3], the CLH came to 186 µL/min.

The compound `CNC(=O)c1nc(C)n2ccc(Nc3nccc(-n4cc([C@@H]5C[C@H](O)CN5C)cn4)n3)cc12` yielded a log distribution coefficient (logD) in data set [1] of 2. In addition, in data set [2], the microsomal CLint was 110 µL/min/mg. In addition, the CLH in data set [3] amounted to 17 µL/min. Further, in [10], the pKa is 7.9.

`CNC(=O)c1nn(C)c2c(C)cc(Nc3nccc(-c4cc(CN(C)C)n(C)n4)n3)cc12`: in data set [1], the pH-dependent lipophilicity (logD) was 2.6. In data set [2], the microsomal CLint stood at 106 µL/min/mg. The CLH in [3] is 64 µL/min.

The compound `CNC(=O)c1nn(C)c2ccc(Nc3nccc(-c4cc(CN(C)C)n(C)n4)n3)cc12` gave a logD in data set [1] of 2.2. In addition, in data set [2], the microsomal CLint stood at 93 µL/min/mg. Further, the CLH in data set [3] was 51 µL/min. In data set [10], this compound registered a pKa of 7.3.

In data set [1], `CN(C)Cc1cnn(-c2ccnc(Nc3ccc4c(c3)c(C(=O)N(C)C)nn4C)n2)c1` came in with a logD of 1.7. Further, in data set [2], the microsomal CLint turned out to be 43 µL/min/mg. In [3], the CLH turned out to be 33 µL/min.

With `CNC(=O)c1nn(C)c2ccc(Nc3nccc(-n4cc(CN(C)C)c(F)n4)n3)cc12`, in data set [1], the logD is 2.8. Also, the microsomal CLint in data set [2] was determined as 84 µL/min/mg. Further, the CLH in data set [3] stood at 34 µL/min.

In data set [1], `Cc1nnc(-c2nc(C)n3ccc(Nc4nccc(-c5cc(CN(C)C)n(C)n5)n4)cc23)o1` registered a log distribution coefficient (logD) of 2.4. In addition, the microsomal CLint in data set [2] was 40 µL/min/mg. Also, the CLH in [3] was 12 µL/min; in data set [5], 1.9 µL/min; in [16], 44 µL/min. In addition, the solubility in data set [4] is 97 µM (≈ 43.1 µg/mL). In addition, the values for the clearance in data set [6] and in data set [11] were 189 mL/min/kg and 255 mL/min/kg, respectively. The CL free stood at 787 mL/min/kg in data set [7] and 955 mL/min/kg in [12]. Further, the Vd in [8] turned out to be 11 L/kg; in data set [13] it was 8 L/kg. Further, the bioavailability in data set [9] came to 5%; in data set [14] it was 7%. The Papp A→B in data set [15] worked out at 6.5 ×10⁻⁶ cm/s. In addition, in data set [10], the pKa was 7.2.

In turn, `CNC(=O)c1nn(C)c2c(C)cc(Nc3nccc(-n4cc(CN(C)C)cn4)n3)cc12` showed a logD in [1] of 2.3. The microsomal CLint in data set [2] is 32 µL/min/mg. The CLH in [3] is 49 µL/min.

Turning to `Cc1nnc(-c2nn(C)c3ccc(Nc4nccc(-c5cc(CN(C)C)n(C)n5)n4)cc23)o1`, in [1], the log distribution coefficient (logD) was found to be 2.6. Also, the CLH in data set [3] was found to be 14 µL/min.

In data set [1], `CNC(=O)c1nn(C)c2ccc(Nc3nccc(-n4cc(CN5CC(O)C5)c(C)n4)n3)cc12` had a logD of 1.9. In addition, the microsomal CLint in data set [2] was 78 µL/min/mg. In addition, the CLH in data set [3] came out at 19 µL/min. In data set [10], this compound yielded a pKa of 8.6.
